ChEMBL document CHEMBL1201862, “PubChem BioAssay data set” (2004)
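Protocol summary: plate cells (96-well), add compound at 5 concentrations, incubate 48 h, interpolate endpoints linearly. GI50: concentration for 50% inhibition of growth.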 Active and inactive are the calls of the source. Cut-off read from the data, not from the text of the source: active = GI50 up to about 1.1 µM and inactive = higher.

What was measured:
Assay in all cases: growth of human tumour cells (NCI), 48 h
SK-MEL-28 = tested on: SK-MEL-28
U-251 = tested on: U-251
BT-549 = tested on: BT-549
EKVX = tested on: EKVX
SN12C = tested on: SN12C
Hs-578T = tested on: Hs-578T
RPMI-8226 = tested on: RPMI-8226
K562 = tested on: K562
IGROV-1 = tested on: IGROV-1
OVCAR-3 = tested on: OVCAR-3
UACC-62 = tested on: UACC-62
SK-MEL-5 = tested on: SK-MEL-5
MDA-MB-435 = tested on: MDA-MB-435
KM12 = tested on: KM12
A498 = tested on: A498
T47D = tested on: T47D
LOX IMVI = tested on: LOX IMVI
MDA-N = tested on: MDA-N
SR = tested on: SR

**Q.** `N#Cc1c(-c2ccc(Cl)cc2)[nH]c(=O)n(C2OC(CO)C(O)C(O)C2O)c1=O` (stereo not given) was tested. Which GI50 (SK-MEL-28) did it give?
**A.** > 100 µM (inactive)

**Q.** And the GI50 (U-251)?
**A.** > 100 µM (inactive)

**Q.** And the GI50 (BT-549)?
**A.** > 100 µM (inactive)

**Q.** What about the GI50 (EKVX) of the same compound?
**A.** 54.6 µM (inactive)

**Q.** What about the GI50 (SN12C) of the same compound?
**A.** > 100 µM (inactive)

**Q.** And the GI50 (Hs-578T)?
**A.** > 100 µM (inactive)

**Q.** And the GI50 (RPMI-8226)?
**A.** > 100 µM (inactive)

**Q.** What about the GI50 (K562) of the same compound?
**A.** > 100 µM (inactive)

**Q.** And the GI50 (IGROV-1)?
**A.** 22.6 µM (inactive)

**Q.** What about the GI50 (OVCAR-3) of the same compound?
**A.** > 100 µM (inactive)

**Q.** What about the GI50 (UACC-62) of the same compound?
**A.** > 100 µM (inactive)

**Q.** And the GI50 (SK-MEL-5)?
**A.** > 100 µM (inactive)

**Q.** And the GI50 (MDA-MB-435)?
**A.** > 100 µM (inactive)

**Q.** And the GI50 (KM12)?
**A.** > 100 µM (inactive)

**Q.** And the GI50 (A498)?
**A.** 21.1 µM (inactive)

**Q.** And the GI50 (T47D)?
**A.** 74 µM (inactive)

**Q.** For `CCSc1[nH]c(/N=C(/NC(=O)c2ccccc2)NC(C)C)c(C(N)=O)c1C(N)=O`, which GI50 (SK-MEL-28) is on record?
**A.** > 10 µM (inactive)

**Q.** What about the GI50 (EKVX) of the same compound?
**A.** > 10 µM (inactive)

**Q.** And the GI50 (SN12C)?
**A.** > 10 µM (inactive)

**Q.** And the GI50 (RPMI-8226)?
**A.** > 10 µM (inactive)

**Q.** And the GI50 (K562)?
**A.** > 10 µM (inactive)

**Q.** What about the GI50 (IGROV-1) of the same compound?
**A.** > 10 µM (inactive)

**Q.** What about the GI50 (UACC-62) of the same compound?
**A.** > 10 µM (inactive)

**Q.** And the GI50 (LOX IMVI)?
**A.** > 10 µM (inactive)

**Q.** And the GI50 (MDA-N)?
**A.** > 10 µM (inactive)

**Q.** And the GI50 (SK-MEL-5)?
**A.** > 10 µM (inactive)

**Q.** And the GI50 (SR)?
**A.** > 10 µM (inactive)

**Q.** What about the GI50 (MDA-MB-435) of the same compound?
**A.** > 10 µM (inactive)

**Q.** What about the GI50 (KM12) of the same compound?
**A.** > 10 µM (inactive)

**Q.** And the GI50 (T47D)?
**A.** > 10 µM (inactive)

**Q.** What does the source list for `C[C@H]1CN[C@@H]2[C@@H](C)[C@H]3[C@@H](C[C@H]4[C@@H]5CC[C@H]6C[C@@H](N)CC[C@]6(C)[C@H]5CC[C@]34C)O[C@@]2(O)C1`?
**A.** GI50 (SK-MEL-28): 1.77 µM (inactive); GI50 (U-251): 1.67 µM (inactive); GI50 (BT-549): 2.19 µM (inactive); GI50 (EKVX): 3.34 µM (inactive); GI50 (SN12C): 1.42 µM (inactive); GI50 (Hs-578T): 1.91 µM (inactive); GI50 (RPMI-8226): 2.28 µM (inactive); GI50 (K562): 1.91 µM (inactive); GI50 (IGROV-1): 2.15 µM (inactive); GI50 (OVCAR-3): 2.03 µM (inactive); GI50 (UACC-62): 1.95 µM (inactive); GI50 (LOX IMVI): 1.73 µM (inactive); GI50 (SK-MEL-5): 3.04 µM (inactive); GI50 (MDA-MB-435): 1.6 µM (inactive); GI50 (KM12): 1.91 µM (inactive); GI50 (A498): 0.142 µM (active); GI50 (T47D): 2.23 µM (inactive)

**Q.** For `CCc1n[nH]c(=O)n1-c1ccc2ccccc2c1`, which GI50 (SK-MEL-28) is on record?
**A.** > 100 µM (inactive)

**Q.** And the GI50 (U-251)?
**A.** > 100 µM (inactive)

**Q.** What about the GI50 (EKVX) of the same compound?
**A.** > 100 µM (inactive)

**Q.** What about the GI50 (SN12C) of the same compound?
**A.** > 100 µM (inactive)

**Q.** And the GI50 (Hs-578T)?
**A.** > 100 µM (inactive)

**Q.** And the GI50 (RPMI-8226)?
**A.** > 100 µM (inactive)

**Q.** What about the GI50 (K562) of the same compound?
**A.** > 100 µM (inactive)

**Q.** And the GI50 (IGROV-1)?
**A.** > 100 µM (inactive)

**Q.** What about the GI50 (OVCAR-3) of the same compound?
**A.** > 100 µM (inactive)

**Q.** And the GI50 (UACC-62)?
**A.** > 100 µM (inactive)

**Q.** What about the GI50 (LOX IMVI) of the same compound?
**A.** > 100 µM (inactive)

**Q.** What about the GI50 (MDA-N) of the same compound?
**A.** > 100 µM (inactive)

**Q.** What about the GI50 (SK-MEL-5) of the same compound?
**A.** > 100 µM (inactive)

**Q.** What about the GI50 (SR) of the same compound?
**A.** > 100 µM (inactive)

**Q.** What about the GI50 (MDA-MB-435) of the same compound?
**A.** > 100 µM (inactive)

**Q.** And the GI50 (KM12)?
**A.** > 100 µM (inactive)

**Q.** And the GI50 (A498)?
**A.** > 100 µM (inactive)

**Q.** And the GI50 (T47D)?
**A.** > 100 µM (inactive)

**Q.** Which results are given for `Cc1nnc2sc(-c3ccc(N)cc3)nn12`?
**A.** GI50 (SK-MEL-28): > 100 µM (inactive); GI50 (EKVX): > 100 µM (inactive); GI50 (SN12C): > 100 µM (inactive); GI50 (Hs-578T): 89.3 µM (inactive); GI50 (RPMI-8226): > 100 µM (inactive); GI50 (K562): > 100 µM (inactive); GI50 (IGROV-1): > 100 µM (inactive); GI50 (OVCAR-3): > 100 µM (inactive); GI50 (UACC-62): > 100 µM (inactive); GI50 (SK-MEL-5): > 100 µM (inactive); GI50 (SR): > 100 µM (inactive); GI50 (MDA-MB-435): > 100 µM (inactive); GI50 (KM12): > 100 µM (inactive); GI50 (T47D): > 100 µM (inactive)

**Q.** Which results are given for `C=C(C)[C@@H]1CC[C@]2(C(=O)OC)CC[C@]3(C)[C@H](CC[C@@H]4[C@@]5(C)CC[C@H](O)C(C)(C)[C@@H]5CC[C@]43C)[C@@H]12` [METHYL BETULINATE]?
**A.** GI50 (SK-MEL-28): 22.3 µM (inactive); GI50 (U-251): 17.8 µM (inactive); GI50 (EKVX): 21.7 µM (inactive); GI50 (SN12C): 16.1 µM (inactive); GI50 (Hs-578T): 21.6 µM (inactive); GI50 (K562): 20.5 µM (inactive); GI50 (IGROV-1): 18.1 µM (inactive); GI50 (OVCAR-3): 19.8 µM (inactive); GI50 (LOX IMVI): 18.4 µM (inactive); GI50 (MDA-N): 18.2 µM (inactive); GI50 (SK-MEL-5): 18.8 µM (inactive); GI50 (SR): 32.3 µM (inactive); GI50 (MDA-MB-435): 21 µM (inactive); GI50 (KM12): 15.6 µM (inactive); GI50 (A498): 18.9 µM (inactive); GI50 (T47D): 12 µM (inactive)
